# Read-outs that look alike come from different tables or passages of the source.
# Legend:
# Type in all cases: cell-based
# Malassezia furfur = test: Minimum inhibitory concentration (supplemented RPMI-1640)
# Description: (§1) The minimum inhibitory concentration (MIC) of Nitricil™ NVN1 was determined in vitro for 40 strains of fungi to determine the spectrum of antifungal activity. All MIC testing was conducted in accordance with the Clinical and Laboratory Standards Institute (CLSI) guidelines for antimicrobial testing of yeasts (M27-A2) and filamentous fungi (M38-A2), apart from the lipophilic Malassezia species, which were incubated in supplemented buffered RPMI-1640 medium. The challenge strains were exposed to a series of doubling dilutions of Nitricil™ NVN1 prepared in RPMI-1640 medium in triplicate. Fungal species were also challenged with ketoconazole, prepared in DMSO, as a comparator. Tubes were inoculated with fungal suspensions to a final concentration of 0.5-2.5×10^3 cells/mL for yeasts and 0.4-5.0×10^4 colony-forming units (CFU)/mL, for filamentous fungi. The MIC was determined following a 1- to 4-day incubation period.
# 40 strains of fungi = test: Minimum inhibitory concentration, whole panel
# Description: as §1
# The broad-spectrum antifungal activity of Nitricil™ NVN1 was assessed via growth inhibition experiments against 40 different fungal strains per CLSI M27-A2 and M38-A2 methodology (CLSI, 2008) for assessment of yeasts and filamentous fungi respectively utilizing ketoconazole as the antifungal comparator. […]
# [1] = tested on: Trichophyton mentagrophytes; test: Minimum inhibitory concentration (CLSI)
# Description: as §1
# Fusarium keratoplasticum = test: Minimum inhibitory concentration (CLSI); conditions: ATCC36031
# Description: as §1
# Fusarium oxysporum = test: Minimum inhibitory concentration (CLSI); conditions: ATCC62705
# Description: as §1
# Candida lusitaniae = test: Minimum inhibitory concentration (CLSI); conditions: Clavispora lusitaniae, ATCC200950
# Description: as §1
# Candida albicans = test: Minimum inhibitory concentration (CLSI)
# Description: as §1
# Epidermophyton floccosum = test: Minimum inhibitory concentration (CLSI)
# Description: as §1
# Fusarium solani = test: Minimum inhibitory concentration (CLSI); conditions: ATCC56480
# Description: as §1
# Candida tropicalis = test: Minimum inhibitory concentration (CLSI); conditions: NCPF8760
# Description: as §1
# Trichophyton rubrum = test: Minimum inhibitory concentration (CLSI)
# Description: as §1
structure (smiles),measurement,setting,value
"CC(=O)N1CCN(c2ccc(OCC3COC(Cn4ccnc4)(c4ccc(Cl)cc4Cl)O3)cc2)CC1 (centres unmarked) [Ketoconazole, ketoconazole]",MIC,"Malassezia furfur; ATCC14521, strain ATCC #14521",> 32 µg/mL
same,MIC,"Malassezia furfur; NCPF3349, strain NCPF #3349",> 32 µg/mL
same,MIC,"Malassezia furfur; NCPF8211, strain NCPF #8211",16 µg/mL
same,fold range of MIC values for all fungal species tested,40 strains of fungi,> 500 fold
same,MIC,"[1]; ATCC9533, strain ATCC #9533, read-out: MIC",1 µg/mL
same,MIC,[1]; ATCC18749,0.125 µg/mL
same,MIC,"[1]; ATCC28939, strain ATCC #28939, read-out: MIC",1 µg/mL
same,MIC,"[1]; NCPF0224, strain NCPF #0224, read-out: MIC",0.25 µg/mL
same,MIC,"[1]; NCPF5024, strain NCPF #5024, read-out: MIC",0.5 µg/mL
same,MIC,Fusarium keratoplasticum,> 32 µg/mL
same,MIC,Fusarium oxysporum,> 32 µg/mL
same,MIC,Candida lusitaniae,< 0.063 µg/mL
same,MIC,"Candida albicans; Candida albicans, ATCC10231, strain ATCC #10231, read-out: MIC",< 0.063 µg/mL
same,MIC,"Candida albicans; Candida albicans, ATCC58716, strain ATCC #58716, read-out: MIC",16 µg/mL
same,MIC,"Candida albicans; Candida albicans, ATCC96901, strain ATCC #96901, read-out: MIC",> 32 µg/mL
same,MIC,"Candida albicans; Candida albicans, strain BLSI #112613Ca1, read-out: MIC",> 32 µg/mL
same,MIC,Candida albicans; strain BLSI #112613Ca2,>32.0 µg/mL
same,MIC,"Epidermophyton floccosum; ATCC38826, strain ATCC #38826, read-out: MIC",4 µg/mL
same,MIC,Epidermophyton floccosum; ATCC44685,0.125 µg/mL
same,MIC,"Epidermophyton floccosum; ATCC52061, strain ATCC #52061, read-out: MIC",1 µg/mL
same,MIC,"Epidermophyton floccosum; ATCC52063, strain ATCC #52063, read-out: MIC",> 32 µg/mL
same,MIC,"Epidermophyton floccosum; ATCC52066, strain ATCC #52066, read-out: MIC",> 32 µg/mL
same,MIC,"Epidermophyton floccosum; NCPF5011, strain NCPF #5011, read-out: MIC",> 32 µg/mL
same,MIC,"Epidermophyton floccosum; NCPF5012, strain NCPF #5012, read-out: MIC",> 32 µg/mL
same,MIC,Fusarium solani,> 32 µg/mL
same,MIC,Candida tropicalis,32 µg/mL
same,MIC,"Trichophyton rubrum; ATCC10218, strain ATCC #10218, read-out: MIC",< 0.063 µg/mL
same,MIC,"Trichophyton rubrum; ATCC22402, strain ATCC #22402, read-out: MIC",< 0.063 µg/mL
same,MIC,Trichophyton rubrum; ATCC28188,0.125 µg/mL
same,MIC,"Trichophyton rubrum; ATCC44697, strain ATCC #44697, read-out: MIC",> 32 µg/mL
same,MIC,"Trichophyton rubrum; NCPF0113, strain NCPF #0113, read-out: MIC",> 32 µg/mL
same,MIC,"Trichophyton rubrum; NCPF0118, strain NCPF #0118, read-out: MIC",< 0.063 µg/mL
same,MIC,"Trichophyton rubrum; NCPF0295, strain NCPF #0295, read-out: MIC",> 32 µg/mL
same,MIC,"Trichophyton rubrum; NCPF5025, strain NCPF #5025, read-out: MIC",> 32 µg/mL
same,MIC,"Trichophyton rubrum; strain ATCC #MYA-4438, read-out: MIC",> 32 µg/mL

# — US11166980B2, “Compositions, systems, kits, and methods for treating an infection” (Novan, Inc., priority 2016, dated 2021)
